Measurements reported in the NIST ThermoML archive (doi:10.1021/acs.jced.5b00971).

Conditions: Liquid; for thermal conductivity: Hot wire method; for viscosity: Capillary tube (Ostwald / Ubbelohde) method; for mass density: Pycnometric method

CCCCCCCCCC(=O)O [decanoic acid]
101.33 kPa
Conditions | mass density [kg/m3] | thermal conductivity [W/m/K] | viscosity [mPa·s]
308 K | – | 0.154 | –
322.1 K | 878 | – | 4.75
327.4 K | – | 0.15 | –
332.1 K | 871 | – | 3.8
348.8 K | – | 0.146 | –
352.1 K | 855.3 | – | 2.55
368.3 K | 843.1 | – | 1.94
373.9 K | – | 0.14 | –
388.3 K | 827.3 | – | 1.45
398.3 K | – | 0.135 | –
408.2 K | 812.2 | – | 1.1
421.9 K | – | 0.13 | –
427.2 K | 797.2 | – | 0.88
428.2 K | 796.4 | – | 0.87
442.2 K | 784.9 | – | 0.75
447.3 K | – | 0.125 | –
457.2 K | 772.9 | – | 0.64
472.2 K | 761.9 | – | 0.56
473.4 K | – | 0.119 | –

CCCCCCCCCCCC(=O)O [dodecanoic acid]
101.33 kPa
Conditions | mass density [kg/m3] | thermal conductivity [W/m/K] | viscosity [mPa·s]
322.1 K | 872.4 | – | 7.21
324.6 K | – | 0.156 | –
332.1 K | 864.6 | – | 5.62
348.7 K | – | 0.151 | –
352.1 K | 849.9 | – | 3.7
368.2 K | 838.9 | – | 2.69
373.8 K | – | 0.145 | –
388.4 K | 824.1 | – | 1.97
398.4 K | – | 0.14 | –
408.1 K | 809.3 | – | 1.47
422 K | – | 0.134 | –
428.1 K | 794.4 | – | 1.11
442.2 K | 783.5 | – | 0.95
447.5 K | – | 0.129 | –
457.2 K | 770.2 | – | 0.8
467.2 K | 762 | – | 0.72
472.7 K | – | 0.123 | –

CCCCCCC(=O)O [heptanoic acid]
101.33 kPa
Conditions | mass density [kg/m3] | thermal conductivity [W/m/K] | viscosity [mPa·s]
290.3 K | 920.6 | – | 4.63
296 K | – | 0.144 | –
308 K | 905.7 | – | 3.06
314.4 K | – | 0.14 | –
323.1 K | 893 | – | 2.3
332.4 K | – | 0.137 | –
338.1 K | 880.4 | – | 1.74
352.6 K | – | 0.133 | –
353.1 K | 867.8 | – | 1.39
367.1 K | 855.4 | – | 1.13
372.2 K | – | 0.13 | –
382 K | – | 0.127 | –
383.2 K | 842.3 | – | 0.94
391.9 K | – | 0.124 | –
397.9 K | 829.4 | – | 0.79
412.4 K | – | 0.121 | –
412.9 K | 816.6 | – | 0.68
427.7 K | 803.4 | – | 0.59
441.7 K | – | 0.116 | –
471.4 K | – | 0.11 | –

CCCCCC(=O)O [hexanoic acid]
101.33 kPa
Conditions | mass density [kg/m3] | thermal conductivity [W/m/K] | viscosity [mPa·s]
294.5 K | 926 | – | –
294.6 K | – | – | 3.07
296.9 K | – | 0.143 | –
312.1 K | 910.5 | – | 2.15
325.7 K | – | 0.138 | –
332.1 K | 893.1 | – | 1.52
347.4 K | – | 0.134 | –
352.1 K | 875.8 | – | 1.14
368.1 K | 861.7 | – | 0.94
374.7 K | – | 0.128 | –
388.4 K | 843.5 | – | 0.73
398.1 K | – | 0.124 | –
408.3 K | 825.3 | – | 0.6
422.3 K | – | 0.12 | –
428.3 K | 806.5 | – | 0.49
445.6 K | – | 0.116 | –
471.2 K | – | 0.113 | –

CCCCCCCCC(=O)O [nonanoic acid]
101.33 kPa
Conditions | mass density [kg/m3] | thermal conductivity [W/m/K] | viscosity [mPa·s]
290.3 K | 906 | – | –
292.3 K | – | – | 8.2
296.3 K | – | 0.15 | –
308 K | 893.8 | – | 5.25
322.6 K | – | 0.144 | –
323.1 K | 881.9 | – | 3.66
338.1 K | 870.1 | – | 2.7
352.9 K | – | 0.139 | –
353.1 K | 858.4 | – | 2.07
368 K | 846.7 | – | 1.63
381.3 K | – | 0.133 | –
383.1 K | 834.1 | – | –
383.3 K | – | – | 1.31
398.1 K | 822.3 | – | 1.08
412.2 K | – | 0.126 | –
413 K | 810.3 | – | 0.9
427.9 K | 798 | – | 0.76
441.4 K | – | 0.121 | –
471.6 K | – | 0.115 | –

CCCCCCCC(=O)O [octanoic acid]
101.33 kPa
Conditions | mass density [kg/m3] | thermal conductivity [W/m/K] | viscosity [mPa·s]
290.3 K | 910.3 | – | –
293.3 K | – | – | 5.86
297.2 K | – | 0.147 | –
308 K | 898.2 | – | 3.98
322.3 K | – | 0.142 | –
323.1 K | 885.9 | – | 2.88
338.1 K | 873.8 | – | 2.17
352.8 K | – | 0.136 | –
353.1 K | 861.8 | – | 1.69
367.8 K | 849.7 | – | 1.36
383.1 K | 837.2 | – | 1.11
387.6 K | – | 0.13 | –
398.1 K | 824.6 | – | 0.92
411.3 K | – | 0.124 | –
412.9 K | 812.3 | – | 0.78
427.7 K | 799.2 | – | 0.67
442 K | – | 0.118 | –
471.7 K | – | 0.112 | –

CCCCC(=O)O [pentanoic acid]
Conditions | mass density [kg/m3] | thermal conductivity [W/m/K] | viscosity [mPa·s]
293.4 K | 939.7 | – | 2.19
296.1 K | – | 0.141 | –
312.1 K | 922.3 | – | 1.56
324.1 K | – | 0.136 | –
332.1 K | 904.1 | – | 1.17
348.6 K | – | 0.131 | –
352.2 K | 885.4 | – | 0.89
368.1 K | 870.6 | – | 0.75
374 K | – | 0.126 | –
388.4 K | 851 | – | 0.6
398 K | – | 0.122 | –
408.3 K | 831.9 | – | 0.5
422.4 K | – | 0.118 | –
428.2 K | 812.1 | – | 0.41
446.4 K | – | 0.115 | –
471.3 K | – | 0.111 | –

CCCCCCCCCCCCCC(=O)O [tetradecanoic acid]
101.33 kPa
Conditions | mass density [kg/m3] | thermal conductivity [W/m/K] | viscosity [mPa·s]
332.1 K | 861.3 | – | 7.77
334.4 K | – | 0.158 | –
349 K | – | 0.155 | –
352.1 K | 846.9 | – | 4.88
368.2 K | 835.6 | – | 3.53
374.1 K | – | 0.149 | –
388.2 K | 821.4 | – | 2.48
397.7 K | – | 0.144 | –
408.2 K | 806.7 | – | 1.79
422.3 K | – | 0.139 | –
427.9 K | 791.7 | – | 1.35
442.2 K | – | – | 1.13
443.2 K | 780.9 | – | –
447.3 K | – | 0.133 | –
457.2 K | – | – | 0.95
458.2 K | 769.3 | – | –
471.9 K | – | 0.127 | –
472.2 K | – | – | 0.81
473.2 K | 758 | – | –
